Legend:
[1] = Study 301 (BHV3000-301), Phase 3, rimegepant 75 mg tablet vs placebo, acute treatment of migraine; type: in vivo, human
Description: Clinical Trial—BHV3000-301: Phase 3: Double-Blind, Randomized, Placebo-Controlled, Safety and Efficacy Trial of BHV-3000 (Rimegepant) for the Acute Treatment of Migraine (ClinicalTrials.gov Identifier: NCT03235479). • Study Type: Interventional (Clinical Trial) • Actual Enrollment: 1490 participants • Allocation: Randomized • Intervention Model: Parallel Assignment • Intervention Model Description: Double-blind to Sponsor, Investigator and Subject Randomized Controlled Trial • Masking: Triple (Participant, Care Provider, Investigator) • Masking Description: Double-blind to Sponsor, Investigator and Subject • Primary Purpose: Treatment • Official Title: BHV3000-301: Phase 3: Double-Blind, Randomized, Placebo-Controlled, Safety and Efficacy Trial of BHV-3000 (Rimegepant) for the Acute Treatment of Migraine • 1. Pain freedom of rimegepant (75 mg tablet) compared with placebo in the acute treatment of migraine will be measured using the number of evaluable subjects that report no pain at 2 hours post-dose. [Time Frame: Two hours post dose] • Pain will be measured on a 4 point Likert scale (0=none, 1=mild, 2=moderate, 3=severe) • 2. Freedom from the most bothersome symptom (MBS) of rimegepant (75 mg tablet) compared with placebo will be measured using the number of evaluable subjects that report the absence of their MBS at 2 hours post-dose. [Time Frame: Two hours post dose] • The MBS (nausea, phonophobia or photophobia) will measured using a binary scale (0=absent, 1=present). • 1. […] [Time Frame: 2 hours-24 hours post-dose] • Sustained Pain Freedom as measured by a 4 point numeric rating scale (None, Mild, Moderate, Severe) • 2. The difference between rimegepant (75 mg tablet) compared to placebo by tabulating the absence of photophobia at 2 hours post-dose in the subset of subjects that reported the presence of photophobia at headache baseline. [Time Frame: 2 hours post-dose] • Photophobia • 3. To evaluate rimegepant (75 mg tablet) compared to placebo by tabulating the number of subjects that report the absence of phonophobia at 2 hours post-dose in the subset of subjects that reported the presence of phonophobia at headache baseline. [Time Frame: 2 hours post-dose] • Phonophobia • 4. To measure the difference between rimegepant (75 mg tablet) compared to placebo on Pain Relief, at 2 hours post-dose, for those that report a pain level of moderate or severe at baseline and then report a pain level of none or mild. [Time Frame: 2 hours post-dose] • Pain Relief as measured by a 4 point numeric rating scale (None, Mild, Moderate, Severe) • 5. Freedom from Nausea by tabulating the number of subjects that report the absence of nausea at 2 hours post-dose in the subset of subjects that reported the presence of nausea at headache baseline. [Time Frame: 2 hours post-dose] • Freedom from Nausea • 6. The difference between rimegepant (75 mg tablet) compared to placebo on the probability of requiring rescue medication using the number of subjects that take rescue medication within […] administration of study medication (BHV3000 or placebo). [Time Frame: up to 24 hours post-dose] • Requiring Rescue Medication • 7. […] [Time Frame: 2 hours-24 hours post-dose] • Sustained Pain Freedom • 8. […] [Time Frame: 2 hours-24 hours post-dose] • Sustained Pain Relief as measured by a 4 point numeric rating scale (None, Mild, Moderate, Severe) • 9. […] [Time Frame: 2 hours-48 hours post-dose] • Sustained Pain Relief as measured by a 4 point numeric rating scale (None, Mild, Moderate, Severe) • 10. To measure the difference between rimegepant (75 mg tablet) relative to placebo on the proportion of subjects able to function normally, at 2 hours, using the number of subjects that self-report as “normal” on the functional disability scale. [Time Frame: 2 hours post-dose] • Functional Disability Score • 11. […]

[2] = Pooled adverse event and liver function test data, Studies 301, 302 and 303; type: in vivo, human
[3] = both subjects not dosed before onset
[4] = pooled Studies 301, 302, 303, n = 1,771

- Bilirubin elevations >2 times ULN ([1]; 75 mg tablet): No bilirubin elevations
- Transaminase level >3 times ULN, number of subjects ([1]; 75 mg tablet): One
- Transaminase level >3 times ULN, subjects ([1]; 75 mg tablet): 0.2%
- Transaminase level >5 times ULN ([1]; 75 mg tablet): no subject
Structure (SMILES): N[C@@H]1c2cccnc2[C@H](OC(=O)N2CCC(n3c(=O)[nH]c4ncccc43)CC2)CC[C@H]1c1cccc(F)c1F [Rimegepant, [(5S,6S,9R)-5-amino-6-(2,3-difluorophenyl)-6,7,8,9-tetrahydro-5H-cyclohepta[b]pyridin-9-yl] 4-(2-oxo-3H-imidazo[4,5-b]pyridin-1-yl)piperidine-1-carboxylate]
- SAEs related to the study drug [1]: No SAE
- AE dizziness, incidence ([1]; 75 mg tablet): 0.7%
- AE dizziness, n/N ([1]; 75 mg tablet): 4/546
- AE nausea, incidence ([1]; 75 mg tablet): 0.9%
- AE nausea, n/N ([1]; 75 mg tablet): 5/546
- Serum ALT or AST > ULN, n/N ([1]; 75 mg tablet): 11/546
- Serum ALT or AST > ULN, subjects ([1]; 75 mg tablet): 2.0%
- Normal function at 2 hours (functional disability) vs placebo ([1]; P<0.0001): greater proportion
- Serious AEs, number of subjects [1, 3]: 2
- Serious AEs, subjects [1, 3]: 0.4%
- Sustained pain relief from 2 through 48 hours postdose vs placebo ([1]; single dose, no rescue medication, P=0.0003): superiority versus placebo
- Sustained pain freedom from 2 through 48 hours postdose vs placebo ([1]; single dose, no rescue medication, P=0.013): superiority versus placebo
- Bilirubin elevations > 2 × ULN ([2]; across Studies 301, 302 and 303): no patients experienced elevations
- ALT or AST >5 × ULN, patients ([2]; pooled Studies 301, 302, 303, AST elevation, not drug-related per investigator): (0.06%)^2
- ALT or AST >3 × ULN, patients [2, 4]: (0.1%)
- ALT or AST >ULN, patients [2, 4]: (2.7%)
